Assay results as given in publication PMC12362764, “Novel Cyano‐Artemisinin Dimer ZQJ29 Targets PARP1 to Induce Ferroptosis in Pancreatic Cancer Treatment” (Advanced Science, 2025).
Residues, ends and D or L forms follow the SMILES beside them. *: point of attachment. Cbz = O=C(OCc1ccccc1)*; CH2F = FC*

Key:
[1] = test system: PANC-1; experiment: CCK-8 cytotoxicity assay, PANC-1; assay type: cell-based; details: PANC-1, 72 h, average of 3 parallel tests
Method: (§1) Cell viability was evaluated using the Cell Counting Kit‐8 (Beyotime, Shanghai, China) assay. Cells were seeded in 96‐well plates at a density of 2×10^3 cells to allow for attachment. After treatment with ZQJ29 (0.001, 0.01, 0.1, 10, and 25 µM) for 24, 48, and 72 h, 10 µL of CCK‐8 solution was added to each well and incubated for 1 h. The optical density values were then measured at 450 nm using a multifunctional enzyme‐linked immunosorbent assay reader (Tecan, Spark, Switzerland).

[2] = test system: KP4; experiment: CCK-8 cytotoxicity assay, KP4; assay type: cell-based; details: KP4, 72 h, average of 3 parallel tests
Method: as §1

[3] = test system: A549; experiment: CCK-8 cytotoxicity assay, A549; assay type: cell-based; details: A549, 72 h
Method: as §1

[4] = test system: H1975; experiment: CCK-8 cytotoxicity assay, H1975; assay type: cell-based
Method: as §1

[5] = test system: MCF; experiment: CCK-8 cytotoxicity assay, MCF; assay type: cell-based; details: 72 h
Method: as §1

[6] = test system: HeLa; experiment: CCK-8 cytotoxicity assay, HeLa; assay type: cell-based; details: 72 h
Method: as §1

[7] = test system: HCT116; experiment: CCK-8 cytotoxicity assay, HCT116; assay type: cell-based; details: HCT116, 72 h
Method: as §1

[8] = test system: JHH7; experiment: CCK-8 cytotoxicity assay, JHH7; assay type: cell-based; details: JHH7, 72 h
Method: as §1

[9] = test system: HEK-293T; experiment: CCK-8 cytotoxicity assay, HEK-293T (normal cell line); assay type: cell-based; details: 72 h
Method: as §1

[10] = test system: LX2; experiment: CCK-8 cytotoxicity assay, LX2 (normal cell line); assay type: cell-based
Method: as §1

[11] = test system: THLE-2; experiment: CCK-8 cytotoxicity assay, THLE-2 (normal cell line); assay type: cell-based; details: 72 h
Method: as §1

[12] = test system: HPDE6-C7; experiment: CCK-8 cytotoxicity assay, HPDE6-C7 (normal cell line); assay type: cell-based
Method: as §1

[13] = test system: PANC-1 tumors; experiment: PANC-1 subcutaneous xenograft antitumor activity; assay type: in vivo, BALB/c nude mice; details: vs control
Method: (§2) Five‐week‐old male BALB/c nude mice were purchased from Shanghai Jihui Laboratory Animal Breeding Co., Ltd. (Shanghai, China). After a one‐week acclimatization period, PANC‐1 cells were subcutaneously injected at a dose of 5 × 10^6 cells per mouse. Four weeks post‐injection, once tumor volumes reached 50–100 mm^3, the tumor‐bearing animals were randomly divided into four groups, each consisting of six animals. ZQJ29 was prepared in a 0.5% CMC‐Na solution, while OXA was dissolved in saline. The control group was treated with oral gavage of 0.5% CMC‐Na, while the positive control group was administered intraperitoneal injections of OXA at a dosage of 3 mg kg^−1 every three days. The test groups were treated with oral gavage of ZQJ29 at dosages of 25 and 50 mg kg day^−1. Mouse weights were monitored every other day. Tumor measurements were taken every other day using calipers, and the tumor volume was calculated using the following formula: ½ × length × width^2. Drug administered continued for three weeks. After blood collection at the end of the administration, the mice were humanely euthanized, and their vital organs were promptly harvested, preserved, and embedded in paraffin for H&E staining.

[14] = Toxicity in tumor-bearing mice (body weight, ALT/AST, H&E); assay type: in vivo, BALB/c nude mice
Method: as §2
Following the experiments, organs from mice, including hearts, livers, spleens, lungs, and kidneys were swiftly collected and fixed in 4% paraformaldehyde overnight. The tissues were then embedded in paraffin. Afterward, 4‐µm‐thick sections were produced and stained using H&E. Images of these sections were captured with a Leica DM4000b microscope (Germany).
Blood samples were collected and placed in a biochemical incubator for 30 min, followed by centrifugation at 6000 rpm for 10 min. The supernatant was used to measure the following indicators: ALT and AST (both from Jiancheng, Nanjing, China).

[15] = test system: PANC-1 and KP4 cells; experiment: Cell death manner assay (co-treatment with death pathway inhibitors, CCK-8); assay type: cell-based; details: 10 µM Z-VAD-FMK, 5 mM 3-MA, 10 µM Nec-1, 10 µM Fer-1 with ZQJ29, 24 h
Method: To investigate the mechanism of ZQJ29 in pancreatic cancer proliferation inhibition, the manners of cell death were analyzed. The cell apoptosis inhibitor Z‐VAD‐FMK, cell autophagy inhibitor 3‐methyladenine, cell necrosis inhibitor necrostatin‐1, cell ferroptosis inhibitor Ferrostatin‐1, and cell ferroptosis agonist Erastin were purchased […] (MCE, USA) and stored at −20 °C. PANC‐1 and KP4 cells were seeded with a density of 2000 cells/100 µL well^−1 into 96 well plates. After 24 h, 10 µM Z‐VAD‐FMK, 5 mM 3‐methyladenine, 10 µM necrostatin‐1, 10 µM Ferrostatin‐1, and 10 µM Erastin were added and co‐incubated with ZQJ29 (1 µM), respectively, for 24 h. Then, 10 µL CCK‐8 was added and incubated at 37 °C for an additional 1 h, the absorbance was measured at 450 nm. The percentage of viability was calculated.

[16] = parameters: method as in PMID 38859952; details: DHA; cited from earlier work

N.N.[Cl][Pt][Cl] [DDP]
IC50 [1]: > 10 µM | IC50 [2]: > 10 µM | IC50 [3]: > 10 µM | IC50 ([4]; H1975, 72 h): > 10 µM | IC50 [5]: 0.036 ± 0.028 µM | IC50 [6]: 0.282 ± 0.11 µM | IC50 [7]: 0.071 ± 0.042 µM | IC50 [8]: > 10 µM | IC50 [9]: > 10 µM | IC50 ([10]; 72 h): > 10 µM | IC50 [11]: 1.46 ± 0.984 µM | IC50 ([12]; 72 h): > 10 µM

O=C1[O][Pt]2([NH][C@@H]3CCCC[C@H]3[NH]2)[O]C1=O [OXA, oxaliplatin]
IC50 [1]: > 10 µM | IC50 [2]: > 10 µM | IC50 [3]: 2.47 ± 0.41 µM | IC50 ([4]; H1975, 72 h): 3.49 ± 0.552 µM | IC50 [5]: 0.196 ± 0.087 µM | IC50 [6]: 0.51 ± 0.121 µM | IC50 [7]: 0.103 ± 0.026 µM | IC50 [8]: 7.15 ± 2.6 µM | IC50 [9]: > 10 µM | IC50 ([10]; 72 h): 2.46 ± 0.56 µM | IC50 [11]: 0.777 ± 0.188 µM | IC50 ([12]; 72 h): 2.7 ± 0.567 µM | tumor growth ([13]; ZQJ29 25 and 50 mg/kg/day oral gavage, OXA 3 mg/kg i.p. every three days, three weeks): effectively inhibited | expression of Ki67 and PCNA in tumor tissue (IHC) ([13]; after treatment): significantly reduced | post-experiment levels of ALT and AST ([14]; ZQJ29 50 mg/kg, OXA 3 mg/kg i.p.): significantly elevated | body weight during the whole treatment period ([14]; tumor-bearing nude mice, three weeks): decreased significantly

CC1CCC2C(C)C(OCCNCCOC3OC4OC5(C)CCC6C(C)CCC(C3C)C46OO5)OC3OC4(C)CCC1C32OO4 (stereo not drawn) [SM1044]
IC50 ([1]; Homo sapiens): 5.95 ± 0.501 µM | IC50 ([2]; Homo sapiens, KP-4): 3 ± 0.799 µM | IC50 ([3]; Homo sapiens): 3.45 ± 1.76 µM | IC50 ([4]; Homo sapiens, NCI-H1975, 72 h): 6.88 ± 0.014 µM | IC50 [5]: 1.33 ± 0.303 µM | IC50 ([6]; Homo sapiens): 2.29 ± 0.429 µM | IC50 ([7]; Homo sapiens, HCT-116): 4.98 ± 2.36 µM | IC50 [8]: 2.13 ± 0.573 µM | IC50 ([9]; Homo sapiens): > 10 µM | IC50 ([10]; Homo sapiens, LX-2, 72 h): > 10 µM | IC50 ([11]; Homo sapiens): > 10 µM | IC50 ([12]; HPDE6c7, 72 h): > 10 µM

CN1C(=O)C(Cc2c[nH]c3ccccc23)NC1=S (stereo not drawn) [Nec‐1, necrostatin‐1]
reversal of ZQJ29-induced cell death by co-treatment [15]: did not reverse

COC(=O)C[C@H](NC(=O)[C@H](C)NC(=O)[C@@H](NC(=O)OCc1ccccc1)C(C)C)C(=O)CF [Z‐VAD‐FMK] (Cbz-Val-Ala-Asp(OMe)-CH2F)
reversal of ZQJ29-induced cell death by co-treatment [15]: did not reverse

C[C@H]1[C@@H](O)O[C@@H]2O[C@@]3(C)CC[C@H]4[C@H](C)CC[C@@H]1[C@@]24OO3 [DHA, dihydroartemisinin]
IC50 ([1]; Homo sapiens): > 10 µM | IC50 ([2]; Homo sapiens, KP-4): > 10 µM | IC50 ([3]; Homo sapiens): > 10 µM | IC50 ([4]; Homo sapiens, NCI-H1975, 72 h): > 10 µM | IC50 [5]: > 10 µM | IC50 ([6]; Homo sapiens): > 10 µM | IC50 ([7]; Homo sapiens, HCT-116): > 10 µM | IC50 [8]: > 10 µM | IC50 ([9]; Homo sapiens): > 10 µM | IC50 ([10]; Homo sapiens, LX-2, 72 h): > 10 µM | IC50 ([11]; Homo sapiens): 8.66 ± 0.714 µM | IC50 ([12]; HPDE6c7, 72 h): > 10 µM | t1/2 [16]: 30 min

Cn1cnc(N)c2ncnc1-2 [3‐MA, 3‐methyladenine]
reversal of ZQJ29-induced cell death by co-treatment [15]: did not reverse

CCOC(=O)c1ccc(NC2CCCCC2)c(N)c1 [Fer‐1, Ferrostatin‐1]
reversal of ZQJ29-induced cell death by co-treatment [15]: reversed
